# Reference: patent US20240082184A1, “IMPROVED TREATMENT FOR GLOBOID CELL LEUKODSYTROPHY OR KRABBE DISEASE” (priority 2021, published 2024)
# Assays:
# Type in all cases: in vivo
# GALC−/− mice [1] = test: Immunofluorescence (immunostaining) of brain sections for PLP, MFI; conditions: cerebellum and corpus callosum, oral, 15 days
# Description: After 2 weeks of treatment, mice were anesthetized and perfused with PBS (pH 7.4) and then with 4% (w/v) paraformaldehyde solution in PBS. […] Briefly, brains were incubated in PBS containing 0.05% Tween 20 (PBST) and 10% sucrose for 3 h and then 30% sucrose overnight at 4° C. Hemisected brains was then embedded in O.C.T (Tissue Tech) at −80° C. and processed for conventional cryosectioning. Frozen cerebellar and corpus callosum sections (40 micron thick) were treated with cold ethanol (−20° C.) followed by two rinses in PBS, blocking with 3% bovine serum albumin in PBST and labeling with anti-PLP antibody. After three washes in PBST, sections were further incubated with Cy5 (Jackson ImmunoResearch Laboratories, Inc.). The samples were mounted and observed under the Olympus BX41 fluorescent microscope equipped with a Hamamatsu ORCA-03G camera. Captured images were calibrated with the scale bar and then opened in ImageJ software for further quantification analysis. […] The final MFI was analyzed after subtracting the value with the background signal of respective images.
# DAPI was used to visualize nucleus. Mean fluorescence intensity (MFI) of PLP was quantified (C, cerebellum; D, corpus callosum) in two different sections of each of five mice (n=5) per group. […]
# GALC−/− mice [2] = test: Levels of myelin proteins PLP and MBP in brain by Western blot; conditions: gemfibrozil 8 mg/kg/d alone or with vitamin A 150 IU/kg/d
# GALC−/− mice [3] = test: Astroglial activation: GFAP and iNOS levels in brain by Western blot; conditions: gemfibrozil 8 mg/kg/d alone or with vitamin A 150 IU/kg/d, oral, 15 days
# GALC−/− mice [4] = test: Luxol fast blue (LFB) staining for myelin; conditions: cerebellum and corpus callosum, oral, 15 days
# Description: Cerebellar and corpus callosum sections of paraformaldehyde-fixed brain tissues were stained with Luxol fast blue for myelin as described elsewhere. […] FIG. 5 similarly depicts luxol fast blue (LFB) staining of myelin in the cerebellum (A) and corpus callosum (B) of GALC^−/− mice following identical treatment. Results represent analysis of two different sections of each of five mice (n=5) per group. […] FIG. 13 similarly depicts luxol fast blue (LFB) staining of myelin in the cerebellum (A) and corpus callosum (B) of GALC^−/− mice following identical treatment. Results represent analysis of two different sections of each of five mice (n=5) per group.
# GALC−/− mice [5] = test: Open field locomotor activity; conditions: oral, 15 days
# Description: The open field test was conducted for analyzing general motor activities of mice. Locomotor activities were monitored by open field performance and footprint analysis as described in previous studies. […] Mice were placed in the center of a square wooden open field arena (40×40 cm, 30 cm high walls) and allowed to explore freely for 5 min. The movements of the mice were recorded using a camera linked to the Noldus system and EthoVisionXT software. Several parameters including velocity, total distance moved, movement/center point frequency, body elongation, etc. were analyzed to assess the general locomotor activity.
# Following 15 days of treatment, open field locomotor activities were measured. […] Parameters related to movement of animals were obtained from the software and presented as velocity center point (B), distance moved center point (C), movement-center point frequency (D), and body elongation (E).
# Locomotor activity was monitored as in Example 5. Following 15 days of treatment, open field locomotor activities were measured. […] Parameters related to movement of animals were obtained from the software and presented as velocity center point (B), distance moved center point (C), movement-center point frequency (D), and body elongation (E).
# GALC−/− mice [6] = test: Lifespan (percentage of survival, Kaplan-Meier plot); conditions: oral
# Description: Heterozygous animals were used only for breeding purposes and were not used in the study. Animal maintaining and experiments were in accordance with National Institute of Health guidelines and were approved by the Institutional Animal Care and Use committee of the Rush University of Medical Center, Chicago, IL. Treated and untreated mice were allowed to survive humanely as long as possible. When a mouse reached a moribund stage, it was sacrificed.
# As discussed below, after 2 weeks of oral feeding, several parameters were monitored including locomotor activity followed by examining myelin status and glial activation in cerebellum and corpus callosum. Longevity of GALC^−/− mice after drug treatment was also examined. In that case, GALC^−/− mice were treated with the drugs daily until mice reached the moribund stage.
# Mice were treated continually until they reached the moribund stage at which point they were humanely sacrificed.
# [7] = cerebellum, oral gavage, 15 days from 10 d of age, FIG. 2
# [8] = corpus callosum, oral, 15 days, FIG. 3
smiles,measurement,setting,value
Cc1ccc(C)c(OCCCC(C)(C)C(=O)O)c1 [gemfibrozil],myelin status by PLP immunostaining (MFI of PLP),"GALC−/− mice [1]; gemfibrozil 8 mg/kg/d alone or with vitamin A 150 IU/kg/d, FIG. 4",protecting myelin
same,level of MBP (MBP/Actin relative to control),GALC−/− mice [2]; [7],significantly increased
same,level of PLP (PLP/Actin relative to control),GALC−/− mice [2]; [7],significantly increased
same,level of MBP (MBP/Actin relative to control),GALC−/− mice [2]; [8],significantly increased
same,level of PLP (PLP/Actin relative to control),GALC−/− mice [2]; [8],significantly increased
same,level of GFAP (GFAP/Actin relative to control),"GALC−/− mice [3]; cerebellum, FIG. 6",significantly reduced
same,level of iNOS (iNOS/Actin relative to control),"GALC−/− mice [3]; cerebellum, FIG. 6",significantly reduced
same,level of GFAP (GFAP/Actin relative to control),"GALC−/− mice [3]; corpus callosum, FIG. 7",significantly reduced
same,level of iNOS (iNOS/Actin relative to control),"GALC−/− mice [3]; corpus callosum, FIG. 7",significantly reduced
same,myelin status by luxol fast blue (LFB) staining,"GALC−/− mice [4]; gemfibrozil 8 mg/kg/d alone or with vitamin A 150 IU/kg/d, FIG. 5",protection of myelin
same,motor activity in open field versus vehicle treatment,"GALC−/− mice [5]; gemfibrozil 8 mg/kg/d alone or with vitamin A 150 IU/kg/d, FIG. 8",increased
same,lifespan (percentage of survival),"GALC−/− mice [6]; gemfibrozil 8 mg/kg/d alone or with vitamin A 150 IU/kg/d, daily until moribund stage, FIG. 9",increase the lifespan
O=C(O)C=Cc1ccccc1 [cinnamic acid],myelin status by PLP immunostaining (MFI of PLP),"GALC−/− mice [1]; cinnamic acid 25 and 50 mg/kg/day, FIG. 12",protecting myelin
same,myelin status by luxol fast blue (LFB) staining,"GALC−/− mice [4]; cinnamic acid 25 and 50 mg/kg/day, FIG. 13",protection of myelin
same,motor activity in open field versus vehicle treatment,"GALC−/− mice [5]; cinnamic acid 25 and 50 mg/kg/day, FIG. 16",increased
same,lifespan (percentage of survival),"GALC−/− mice [6]; cinnamic acid 25 and 50 mg/kg/day, until moribund stage, FIG. 17",increases the lifespan
